# In ChEMBL document CHEMBL4052752, “Synthesis and evaluation of 1-phenyl-1H-1,2,3-triazole-4-carboxylic acid derivatives as xanthine oxidase inhibitors” (Bioorg Med Chem Lett, 2017):
# Target: T1, Xanthine dehydrogenase/oxidase (Bos taurus, UniProt P80457)
# Assay: Inhibition of bovine xanthine oxidase assessed as reduction in uric acid production using xanthine as substrate preincubated for 10 mins followed by substrate addition by spectrophotometric analysis
# Settings: not given; call rule not given here
# T1 sequence (P80457 whole entry): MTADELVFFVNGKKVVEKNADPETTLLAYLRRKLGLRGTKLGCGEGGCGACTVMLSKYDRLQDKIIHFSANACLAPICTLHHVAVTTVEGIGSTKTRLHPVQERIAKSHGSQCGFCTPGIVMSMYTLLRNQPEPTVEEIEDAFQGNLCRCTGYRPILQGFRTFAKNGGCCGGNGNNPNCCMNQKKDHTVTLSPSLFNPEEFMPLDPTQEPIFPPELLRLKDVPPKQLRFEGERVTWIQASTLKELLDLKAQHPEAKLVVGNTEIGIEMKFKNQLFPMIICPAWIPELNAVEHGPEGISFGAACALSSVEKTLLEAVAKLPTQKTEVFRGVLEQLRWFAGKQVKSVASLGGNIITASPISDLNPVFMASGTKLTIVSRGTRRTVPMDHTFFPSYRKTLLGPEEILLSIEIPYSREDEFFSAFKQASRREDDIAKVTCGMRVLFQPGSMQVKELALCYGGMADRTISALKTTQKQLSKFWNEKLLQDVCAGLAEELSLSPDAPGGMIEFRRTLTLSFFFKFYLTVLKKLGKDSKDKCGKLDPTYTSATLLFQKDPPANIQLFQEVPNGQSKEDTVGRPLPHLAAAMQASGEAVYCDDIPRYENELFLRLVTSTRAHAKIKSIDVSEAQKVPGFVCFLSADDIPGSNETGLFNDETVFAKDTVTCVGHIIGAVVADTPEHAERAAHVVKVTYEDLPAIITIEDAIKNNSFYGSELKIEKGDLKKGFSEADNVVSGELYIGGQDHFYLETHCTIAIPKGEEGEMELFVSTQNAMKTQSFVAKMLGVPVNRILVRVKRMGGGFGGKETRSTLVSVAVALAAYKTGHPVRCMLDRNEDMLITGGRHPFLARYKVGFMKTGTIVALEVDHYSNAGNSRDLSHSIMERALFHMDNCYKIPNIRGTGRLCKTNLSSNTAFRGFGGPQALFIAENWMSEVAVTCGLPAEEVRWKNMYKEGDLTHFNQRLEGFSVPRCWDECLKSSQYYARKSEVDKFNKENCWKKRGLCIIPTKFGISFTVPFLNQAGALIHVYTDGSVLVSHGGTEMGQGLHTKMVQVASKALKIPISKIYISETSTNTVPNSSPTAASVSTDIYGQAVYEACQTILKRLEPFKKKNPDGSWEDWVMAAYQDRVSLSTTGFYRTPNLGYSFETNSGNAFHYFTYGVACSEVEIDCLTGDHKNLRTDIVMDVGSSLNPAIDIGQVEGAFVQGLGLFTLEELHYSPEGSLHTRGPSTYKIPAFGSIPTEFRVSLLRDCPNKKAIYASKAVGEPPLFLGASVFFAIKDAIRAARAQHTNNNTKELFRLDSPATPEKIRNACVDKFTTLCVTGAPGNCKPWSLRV
row,Structure (SMILES),IC50 [nM]
1,CC(C)COc1ccc(-n2cc(C(=O)O)nn2)cc1C#N,3270
2,CCC(C)Oc1ccc(-n2cc(C(=O)O)nn2)cc1C#N (stereo unspecified),3960
3,N#Cc1cc(-n2cc(C(=O)O)nn2)ccc1OC1CCCC1,1080
4,CCCCCOc1ccc(-n2cc(C(=O)O)nn2)cc1C#N,2850
5,CCCOc1ccc(-n2cc(C(=O)O)nn2)cc1C#N,> 30000
6,N#Cc1ccc(COc2ccc(-n3cc(C(=O)O)nn3)cc2C#N)cc1,850
7,CC(C)CCOc1ccc(-n2cc(C(=O)O)nn2)cc1C#N,1620
8,CCCCCCCOc1ccc(-n2cc(C(=O)O)nn2)cc1C#N,1470
9,N#Cc1cc(-n2cc(C(=O)O)nn2)ccc1OCc1ccc(Cl)cc1,940
10,COCCOc1ccc(-n2cc(C(=O)O)nn2)cc1C#N,26100
11,COc1ccccc1COc1ccc(-n2cc(C(=O)O)nn2)cc1C#N,760
12,COc1cccc(COc2ccc(-n3cc(C(=O)O)nn3)cc2C#N)c1,210
13,CCCCOc1ccc(-n2cc(C(=O)O)nn2)cc1C#N,5030
14,CC(C)Oc1ccc(-n2cc(C(=O)O)nn2)cc1C#N,6240
15,N#Cc1cc(-n2cc(C(=O)O)nn2)ccc1OCc1ccccc1,2400
16,CCCCCCOc1ccc(-n2cc(C(=O)O)nn2)cc1C#N,1500
17,COc1ccc(COc2ccc(-n3cc(C(=O)O)nn3)cc2C#N)cc1,720
18,CCCCCCCCOc1ccc(-n2cc(C(=O)O)nn2)cc1C#N,630
19,N#Cc1cccc(COc2ccc(-n3cc(C(=O)O)nn3)cc2C#N)c1,3350

# Target: T1, Xanthine dehydrogenase/oxidase
# Assay: Potency index, ratio of allopurinol IC50 to compound IC50 for bovine xanthine oxidase
# Settings: cattle
row,Structure (SMILES),Ratio IC50
1,COc1cccc(COc2ccc(-n3cc(C(=O)O)nn3)cc2C#N)c1,36

# Target: T1, Xanthine dehydrogenase/oxidase
# Assay: Mixed-type inhibition of bovine xanthine oxidase by Lineweaver-Burk plot method
# Settings: cattle
row,Structure (SMILES),inhibition (INH)
1,COc1cccc(COc2ccc(-n3cc(C(=O)O)nn3)cc2C#N)c1,Active
